Test results as given in patent EP2803363A1, “The antigen CYBA-72Y/B15 and uses thereof” (Universitätsmedizin der Johannes Gutenberg-Universität Mainz, priority 2013, dated 2014).
Ends that are not written are not given here.

T1: CYBA-72Y (cytochrome b-245 alpha-polypeptide, p22phox; SNP rs4673, tyrosine at position 72) peptide on … (human)
T1 peptide: GQKYMTAVV

T2: CYBA-72Y peptide on HLA-B*15:01 (human)
T2 peptide: WGQKYMTAVV


How the values were obtained:
miniMLLC 2E8 [1] = test: 20h-IFN-gamma ELISpot assay: recognition of synthetic CYBA peptides loaded on HLA-B*15:01-transfected 293T cells; assay type: cell-based; settings: for peptide recognition by T lymphocytes against CYBA-72Y/B15: summary statement for all T lymphocytes (miniMLLCs), assay not given; for recognition by T cells using an IFN-gamma-ELISpot assay: 293T cells transfected with HLA-B*15:01, loaded with peptide at different concentrations, 2E8 effector cells, Figure 3A
Procedure: The present invention will now be further described in the following examples with reference to the accompanying figures and sequences, nevertheless, without being limited thereto. For the purposes of the present invention, all references as cited herein are incorporated by reference in their entireties. The Figures and Sequences show: • Figure 1: HLA restriction of miniMLLC 2E8. A) MZ529-EBV-B-cells (5x10^4 cells/well) were co-incubated in the presence of HLA-specific antibodies at concentrations mediating complete blocking of control-T lymphocytes with corresponding HLA restriction, with the miniMLLC 2E8 (1x10^4 cells/TU) in duplicate reactions in a 20h-IFN-gamma ELISpot assay. B) COS-7-cells (2x10^4 cells/well) were transfected with the HLA alleles of patient MZ529-AML and Buffy Coat donor 730 and tested in duplicate reactions for recognition by 2E8 (2x10^4 cells/well) in a 20h-IFN-gamma ELISpot assay. • Figure 2: Fragment analysis of the cDNA clone #428.67.4 for the identification of the peptide-coding region. 3'-fragments with a length difference of one codon (i.e. one amino acid) were generated from the cDNA clone #428.67.4 encoding the full-length CYBA-72Y, and were tested after co-transfection with HLA-B*15:01 into 293T cells (2x10^4 cells/well) in a 20h-IFN-gamma ELISpot assay for recognition by 2E8 (1.5x10^4 cells/well). MZ529-EBV-B cells (5x10^4 cells/well) served as positive control target. • Figure 3: Peptide recognition by the miniMLLC 2E8. (A) For a 20h-IFN-gamma ELISpot assay, 293T cells (2x10^4 cells/well) were transfected with HLA-B*15:01, were loaded with the indicated synthetic CYBA peptides at different concentrations, and were tested in duplicate reactions for recognition by 2E8 (2x10^4 cells/well). (B) For a […]-^51Cr-release assay, HLA-B*15:01-expressing L721.221-cells (2x10^4 cells/well) were loaded with the indicated synthetic CYBA peptides at different concentrations, and co-incubated in duplicate experiments with 2E8 (2x10^4 cells/well). • Figure 4: Recognition of non-malignant hematopoietic cells from HLA-B*15:01-positive BC donors by the CYBA-72Y/B15-specific miniMLLC 2E8. (A) From PBMCs of HLA-B*15:01-positive BC donors, who -with the exception of BC848 - carried at least one CYBA-242T allele (coding for CYBA-72Y), monocytes were purified using plastic adherence and differentiated to mature dendritic cells (mDCs) using cytokines. In duplicates 5x10^4 (BC087, BC848, BC967) or 3x10^4 (BC241, BC048) cells per well were tested for recognition by 2E8 (1.5x10^4 cells/well) in 20h-IFN-gamma ELISpot assays. […]

miniMLLC 2E8 [2] = test: 48h-51Cr-release assay: synthetic CYBA peptides loaded on HLA-B*15:01-expressing L721.221-cells; assay type: cell-based; settings: HLA-B*15:01-expressing L721.221-cells loaded with peptide at different concentrations; 2E8 effector cells; Figure 3B
Procedure: The present invention will now be further described in the following examples with reference to the accompanying figures and sequences, nevertheless, without being limited thereto. For the purposes of the present invention, all references as cited herein are incorporated by reference in their entireties. The Figures and Sequences show: • Figure 1: HLA restriction of miniMLLC 2E8. A) MZ529-EBV-B-cells (5x10^4 cells/well) were co-incubated in the presence of HLA-specific antibodies at concentrations mediating complete blocking of control-T lymphocytes with corresponding HLA restriction, with the miniMLLC 2E8 (1x10^4 cells/TU) in duplicate reactions in a 20h-IFN-gamma ELISpot assay. B) COS-7-cells (2x10^4 cells/well) were transfected with the HLA alleles of patient MZ529-AML and Buffy Coat donor 730 and tested in duplicate reactions for recognition by 2E8 (2x10^4 cells/well) in a 20h-IFN-gamma ELISpot assay. • Figure 2: Fragment analysis of the cDNA clone #428.67.4 for the identification of the peptide-coding region. 3'-fragments with a length difference of one codon (i.e. one amino acid) were generated from the cDNA clone #428.67.4 encoding the full-length CYBA-72Y, and were tested after co-transfection with HLA-B*15:01 into 293T cells (2x10^4 cells/well) in a 20h-IFN-gamma ELISpot assay for recognition by 2E8 (1.5x10^4 cells/well). […]

[3] = target: T1, CYBA-72Y (cytochrome b-245 …); test: cytokine release
[4] = target: T2, CYBA-72Y peptide on HLA-B*15:01; test: cytokine release

Row | binding result [3] | binding result [4] | Molecule | peptide recognition by T lymphocytes against CYBA-72Y/B15 (miniMLLC 2E8 [1]) | recognition by T cells using an IFN-gamma-ELISpot assay (miniMLLC 2E8 [1]) | recognition by T cells by means of a 51Cr-(chromium) release test (miniMLLC 2E8 [2])
1 |  |  | GQKHMTAVV [homologous peptide from CYBA-72H, reference compound] | did not lead to any reactivity |  | 
2 |  |  | GQKYMTAVV [GQKYMTAVV] | recognized by all T lymphocytes at the lowest concentration | recognized at lower concentrations | recognized at lower concentrations
3 |  |  | WGQKYMTAVV [WGQKYMTAVV] |  | recognized | recognized
4 | recognises | recognises | T-cell receptor cloned from miniMLLC 2D10 (TCR) alpha TRAV10*01 TRAJ42*01 CDR3: CVVSRIYGGSQGNLIF beta TRBV20-1*02 TRBJ2-3*01 CDR3: CSARGFSGVTDTQYF |  |  | 
